Test results as given in patent publication US7786107B2, “Modulators of muscarinic receptors” (Vertex Pharmaceuticals Incorporated, priority 2006, dated 2010).

Tests used:
M1 muscarinic receptor = molecular target: T1, M1 muscarinic receptor (Homo sapiens, UniProt P11229); experiment: Functional mobilization of intracellular calcium (FLIPR) in CHO cells expressing M1; type: cell-based; conditions: for EC50: CHO cells expressing M1, calcium mobilization; for Emax: CHO, 100% efficacy is the maximum response obtained with the Carbachol control
T1 construct: expressed in transfected cells; host or cells: CHO
T1 sequence (P11229 1-460): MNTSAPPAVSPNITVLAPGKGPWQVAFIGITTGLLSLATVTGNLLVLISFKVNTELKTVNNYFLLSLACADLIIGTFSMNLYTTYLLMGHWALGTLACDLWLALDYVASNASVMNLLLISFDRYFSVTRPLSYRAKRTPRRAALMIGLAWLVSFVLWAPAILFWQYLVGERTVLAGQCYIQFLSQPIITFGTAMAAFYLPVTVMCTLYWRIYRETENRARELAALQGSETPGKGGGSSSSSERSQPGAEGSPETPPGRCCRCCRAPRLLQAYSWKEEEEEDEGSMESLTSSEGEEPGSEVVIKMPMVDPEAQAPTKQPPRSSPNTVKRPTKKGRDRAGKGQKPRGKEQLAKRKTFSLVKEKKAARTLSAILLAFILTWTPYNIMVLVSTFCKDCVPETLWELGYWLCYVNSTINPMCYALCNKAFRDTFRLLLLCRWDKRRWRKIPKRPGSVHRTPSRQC
Protocol: (§1) Functional Mobilization of Intracellular Calcium to Determine Muscarinic Receptor Activity:
(§2) CHO cells expressing muscarinic receptors (M1 to M5) are grown as monolayers in tissue culture flasks at 37° C. in a humidified atmosphere containing 5% CO2 and passaged every 3-5 days. The growth media is Dulbecco's modified eagles medium (DMEM, Gibco Cat#12430-054), containing 25 mM Hepes and supplemented with Fetal Bovine Serum (Hyclone, Cat#SH30071.03), 0.1 mM of MEM non-essential amino acids (GIBCO, Cat#11140-050), 1 mM MEM Sodium Pyruvate (GIBCO Cat#11360-070) and 100 units/ml of Penicillin G and 100 μg/ml of Streptomycin (GIBCO Cat#15140-122). The recombinant muscarinic receptor cell lines are grown under antibiotic pressure with media containing 25 μg/ml zeocin and 500 μg/ml G418 (MI-CHO), 4 μg/ml puromycin, 50 μg/ml zeocin and 2.5 μg/ml blasticidin (M2 and M4-CHO) or 50 μg/ml zeocin and 4 μg/ml puromycin (M3 and M5-CHO).
(§3) Cells are harvested at 80-90% confluence using Versene (GIBCO Cat#15040-066), collected by centrifugation and seeded 18-24 hours prior to running the calcium assay at a density of 5,000-10,000 cells/well in […], clear-bottomed 384-well plates (BD Biocoat, poly-D-lysine, Cat#356663). The day of the experiment, the cells are washed with a plate washer (Bioteck Instruments, ELX 405) using bath 1 buffer (140-mM NaCl, 4.5-mM KCl, 2-mM CaCl2, 1-mM MgCl2, 10-mM Hepes-Na, 10-mM Glucose, pH 7.4, with NaOH) containing 1 mM Probenecid. Next, the calcium dye Fluo-3 (25 μl well of Fluo-3 AM at 4 μM, Molecular Probes F-1241, in Bath 1 buffer containing 1 mM Probenecid) is added to the 25 μl of Bath 1 remaining in each well after the plate wash and the dye is loaded at 37° C. in the tissue culture incubator for 60-90 min. The fluorescent dye is removed using the plate washer with Bath 1 containing 1 mM Probenecid, leaving 25 μl/well of this solution after the wash. Alternatively, cells can be loaded with the calcium indicator from Molecular Devices (Calcium 3 Assay Reagents, Cat #R7181) adding 5 μl of a 5× solution dye in Bath 1 containing 1 mM Probenecid (10 ml per dye flask cat#R7182 to generate a solution 20×) to 20 μl of the same buffer. After loading for 60 min, the experiment can be run without having to remove the dye.
(§4) Compounds are prepared at a 2× fold concentration in a 96-well plate (round bottom, Costar Corning cat#3656), by reconstituting the pre-spotted compounds in bath 1 containing 1 mM probenecid. The final concentration DMSO is 0.5%, and the amount of DMSO is normalized across the assay plate. To determine an agonist action of the compounds on muscarinic receptors, the reconstituted compounds are added (25 μl compound/well) to the cell assay plate (containing 25 μl/well) using the multi-channel robotic system of the FLIPR 3 Instrument (Molecular Devices, Sunnyvale, Calif.). To determine a functional inhibitory action of the compounds on muscarinic receptors, the reconstituted compounds are added (25 μl compound/well) to the assay plate and pre-incubated for 15 min prior to adding 25 μl of Carbachol at 3× the EC80 for each muscarinic subtype. Alternatively, the compounds can be co-applied simultaneously with the agonist. In both assay modes, the fluorescence is recorded for 60 sec (excitation wavelength is […] and emission wavelength 540 nm) using the FLIPR 3 instrument.
(§5) The potency, efficacy and selectivity of the muscarinic compounds were evaluated by screening the compound activity across the whole family (M1 to M5 cells). Compounds were also screened for activity on other proteins such as other GPCRs and ion channels to determine selectivity on M4 receptors.
(§6) Examples of activities and efficacies of the muscarinic compounds of formulae (I, I-A, and I-B) on modulating M1 and M4 receptors are shown below in Table 4. […]

M4 muscarinic receptor = molecular target: T2, M4 muscarinic receptor (Homo sapiens, UniProt P08173); experiment: Functional mobilization of intracellular calcium (FLIPR) in CHO cells expressing M4; type: cell-based; conditions: for EC50: CHO cells expressing M4, calcium mobilization; for Emax: CHO, 100% efficacy is the maximum response obtained with the Carbachol control
T2 construct: expressed in transfected cells; host or cells: CHO
T2 sequence (P08173 1-479): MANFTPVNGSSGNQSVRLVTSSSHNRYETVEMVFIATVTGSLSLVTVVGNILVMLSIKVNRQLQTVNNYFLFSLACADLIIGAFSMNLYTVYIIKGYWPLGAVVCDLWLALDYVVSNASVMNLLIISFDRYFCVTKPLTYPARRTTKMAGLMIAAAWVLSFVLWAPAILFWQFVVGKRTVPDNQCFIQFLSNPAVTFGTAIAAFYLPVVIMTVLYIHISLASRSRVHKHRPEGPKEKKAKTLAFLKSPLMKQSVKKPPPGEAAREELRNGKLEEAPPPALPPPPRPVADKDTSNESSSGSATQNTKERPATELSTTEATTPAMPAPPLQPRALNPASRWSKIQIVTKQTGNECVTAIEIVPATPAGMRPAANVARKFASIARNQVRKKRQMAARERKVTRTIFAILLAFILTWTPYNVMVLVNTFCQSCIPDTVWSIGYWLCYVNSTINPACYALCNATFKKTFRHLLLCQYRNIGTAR
Protocol: as §1, §2, §3, §4, §5, §6

Structure (SMILES) | EC50 (M1 muscarinic receptor) | Emax (M1 muscarinic receptor) | EC50 (M4 muscarinic receptor) | Emax (M4 muscarinic receptor)
NC(=O)N1CCCC2(CCN(CC3CC4C=CC3C4)CC2)c2ccccc21 (centres unmarked) [Compound 2] | 2 to 10 µM | < 25% | < 2 µM | 25 to 100%
O=C1CCC2(CCN(CC3CC4C=CC3C4)CC2)c2ccccc2N1 (centres unmarked) [Compound 5] | 2 to 10 µM | 25 to 100% | < 2 µM | 25 to 100%
CC(C)(C)CCN1CCC2(CCC(=O)Nc3ccccc32)CC1 [Compound 36, 1′-(3,3-dimethylbutyl)-3,4-dihydrospiro[benzo[b]azepine-5,4′-piperidin]-2(1H)-one] | < 2 µM | 25 to 100% | < 2 µM | 25 to 100%
CC(=O)N1CCCC2(CCN(CC3CCCCC3)CC2)c2ccccc21 [Compound 7] | > 10 µM | < 25% | 2 to 10 µM | < 25%
CN(C)C(=O)N1CCCC2(CCN(CCC(C)(C)C)CC2)c2ccccc21 [Compound 31] | > 10 µM | < 25% | < 2 µM | 25 to 100%
CN(C)C(=O)N1CCCC2(CCN(CC3CCCCC3)CC2)c2ccccc21 [Compound 27] | > 10 µM | < 25% | > 10 µM | < 25%
CCOC(=O)N1CCC(N2CCC3(CCC(=O)N(C)c4ccccc43)CC2)CC1 [Compound 21] | 2 to 10 µM | 25 to 100% | 2 to 10 µM | 25 to 100%
O=C1CCC2(CCN(C3CCCCCC3)CC2)c2ccccc2N1 [Compound 24, 1′-cycloheptyl-3,4-dihydrospiro[benzo[b]azepine-5,4′-piperidin]-2(1H)-one] | < 2 µM | 25 to 100% | < 2 µM | 25 to 100%
CN(C)C(=O)N1CCCC2(CCN(C3CC4CCC(C4)C3)CC2)c2ccccc21 (centres unmarked) [Compound 25] | > 10 µM | < 25% | < 2 µM | 25 to 100%
CCOC(=O)N1CCC(N2CCC3(CCCN(C(N)=O)c4ccccc43)CC2)CC1 [Compound 8] | < 2 µM | 25 to 100% | 2 to 10 µM | 25 to 100%
CCOC(=O)N1C2CCC1CC(N1CCC3(CCC(=O)N(C)c4ccccc43)CC1)C2 (centres unmarked) [Compound 30] | < 2 µM | 25 to 100% | < 2 µM | 25 to 100%
CC(C)(C)CCN1CCC2(CCCN(C(N)=O)c3ccccc32)CC1 [Compound 13] | 2 to 10 µM | 25 to 100% | < 2 µM | 25 to 100%
CC(=O)N1CCCC2(CCN(CC3CC4C=CC3C4)CC2)c2ccccc21 (centres unmarked) [Compound 9] | > 10 µM | < 25% | < 2 µM | 25 to 100%
CN1C(=O)CCC2(CCN(C3C[C@@H]4CC[C@@H]3C4)CC2)c2ccccc21 (some centres unmarked) [Compound 35] | > 10 µM | < 25% | < 2 µM | 25 to 100%
O=C1CCC2(CCN(C3CC4CCC(C4)C3)CC2)c2ccccc2N1 (centres unmarked) [Compound 29] | < 2 µM | 25 to 100% | < 2 µM | 25 to 100%
NC(=O)N1CCCC2(CCN(C3CCCCCC3)CC2)c2ccccc21 [Compound 6] | > 10 µM | < 25% | > 10 µM | < 25%
CCOC(=O)N1C2CCC1CC(N1CCC3(CCC(=O)Nc4ccccc43)CC1)C2 (centres unmarked) [Compound 4] | < 2 µM | 25 to 100% | < 2 µM | 25 to 100%
NC(=O)N1CCCC2(CCN(C3C[C@@H]4CC[C@@H]3C4)CC2)c2ccccc21 (some centres unmarked) [Compound 26] | > 10 µM | < 25% | > 10 µM | < 25%
CCOC(=O)N1CCC(N2CCC3(CCCN(C(C)=O)c4ccccc43)CC2)CC1 [Compound 14] | < 2 µM | 25 to 100% | < 2 µM | 25 to 100%
NC(=O)N1CCCC2(CCN(C3CC4CCC(C4)C3)CC2)c2ccccc21 (centres unmarked) [Compound 16] | 2 to 10 µM | 25 to 100% | < 2 µM | 25 to 100%
CN1C(=O)CCC2(CCN(C3CC4CCC(C4)C3)CC2)c2ccccc21 (centres unmarked) [Compound 19, 1′-(bicyclo[3.2.1.]octan-3-yl)-1-methyl-3,4-dihydrospiro[benzo[b]azepine-5,4′-piperidin]-2(1H)-one] | < 2 µM | 25 to 100% | < 2 µM | 25 to 100%
O=C1CCC2(CCN(C3C[C@@H]4CC[C@@H]3C4)CC2)c2ccccc2N1 (some centres unmarked) [Compound 1] | < 2 µM | > 100% | < 2 µM | 25 to 100%
CN(C)C(=O)N1CCCC2(CCN(CC3CC4C=CC3C4)CC2)c2ccccc21 (centres unmarked) [Compound 15] | > 10 µM | < 25% | < 2 µM | 25 to 100%
